Source: ChEMBL document CHEMBL4808184, “Discovery and Optimization of DNA Gyrase and Topoisomerase IV Inhibitors with Potent Activity against Fluoroquinolone-Resistant Gram-Positive Bacteria” (J Med Chem, 2021)
In brackets after ≈: the same amount, converted by molar mass.

Assays:
in vivo [1] = conditions: rat, 5 mg/kg
in vivo [2] = conditions: rat, iv
in vivo [3] = conditions: rat, po, 5 mg/kg
in vivo [4] = conditions: rat, po, 5 mg/kg; remark: listed apart in the source
in vivo [5] = conditions: rat, po, 5 mg/kg; remark: listed apart in the source
in vivo [6] = conditions: rat, po, 5 mg/kg; remark: listed apart in the source
physchem [7] = conditions: octanol/water, pH 7.4
physchem [8] = assay: physchem
in vitro [9] = conditions: CD1, mouse, plasma
in vitro [10] = conditions: Sprague-Dawley, rat, plasma
in vitro [11] = conditions: human, plasma
Staphylococcus aureus [12] = assay: microbe, parasite or virus in culture; conditions: ATCC 49951
Staphylococcus aureus [13] = assay: microbe, parasite or virus in culture; conditions: ATCC 49951; remark: listed apart in the source
HepG2 = assay: cells; conditions: Homo sapiens, HepG2, 72 h
physchem [14] = assay: physchem; remark: listed apart in the source
Staphylococcus aureus [15] = assay: microbe, parasite or virus in culture; conditions: ATCC 49951; remark: listed apart in the source
Enterococcus faecalis = assay: microbe, parasite or virus in culture; conditions: ATCC 29212
Streptococcus pneumoniae = assay: microbe, parasite or virus in culture; conditions: ATCC 49619
K562 = assay: cells; conditions: Homo sapiens, K562, 72 h
in vivo [16] = conditions: rat, iv, 3.35 mg/kg
in vivo [17] = conditions: rat, iv, 3.35 mg/kg; remark: listed apart in the source
in vivo [18] = conditions: rat, po, 3.35 mg/kg
in vivo [19] = conditions: rat, po, 3.35 mg/kg; remark: listed apart in the source
in vivo [20] = conditions: rat, po, 3.35 mg/kg; remark: listed apart in the source
in vivo [21] = conditions: rat, po, 3.35 mg/kg; remark: listed apart in the source
physchem [22] = conditions: buffer, pH 7
in vitro [23] = conditions: human, Caco-2
in vitro [24] = conditions: human, Caco-2; remark: listed apart in the source
in vivo [25] = conditions: rat, 5 mg/kg; remark: listed apart in the source
in vivo [26] = conditions: mouse, 5 mg/kg
in vivo [27] = conditions: dog, 1 mg/kg
in vivo [28] = conditions: mouse, iv
in vivo [29] = conditions: dog, iv, 0.125 mg/kg
in vivo [30] = conditions: mouse, po, 5 mg/kg
in vivo [31] = conditions: dog, po, 1 mg/kg
in vivo [32] = conditions: mouse, po, 5 mg/kg; remark: listed apart in the source
in vivo [33] = conditions: dog, po, 1 mg/kg; remark: listed apart in the source
in vivo [34] = conditions: mouse, po, 5 mg/kg; remark: listed apart in the source
in vivo [35] = conditions: dog, po, 1 mg/kg; remark: listed apart in the source
in vivo [36] = conditions: mouse, po, 5 mg/kg; remark: listed apart in the source
hERG (KCNH2) = hERG (KCNH2) (Homo sapiens, UniProt Q12809); assay: in vitro; conditions: CHO-K1 cells expressing human ERG
Chain of hERG (KCNH2) (Q12809 whole entry): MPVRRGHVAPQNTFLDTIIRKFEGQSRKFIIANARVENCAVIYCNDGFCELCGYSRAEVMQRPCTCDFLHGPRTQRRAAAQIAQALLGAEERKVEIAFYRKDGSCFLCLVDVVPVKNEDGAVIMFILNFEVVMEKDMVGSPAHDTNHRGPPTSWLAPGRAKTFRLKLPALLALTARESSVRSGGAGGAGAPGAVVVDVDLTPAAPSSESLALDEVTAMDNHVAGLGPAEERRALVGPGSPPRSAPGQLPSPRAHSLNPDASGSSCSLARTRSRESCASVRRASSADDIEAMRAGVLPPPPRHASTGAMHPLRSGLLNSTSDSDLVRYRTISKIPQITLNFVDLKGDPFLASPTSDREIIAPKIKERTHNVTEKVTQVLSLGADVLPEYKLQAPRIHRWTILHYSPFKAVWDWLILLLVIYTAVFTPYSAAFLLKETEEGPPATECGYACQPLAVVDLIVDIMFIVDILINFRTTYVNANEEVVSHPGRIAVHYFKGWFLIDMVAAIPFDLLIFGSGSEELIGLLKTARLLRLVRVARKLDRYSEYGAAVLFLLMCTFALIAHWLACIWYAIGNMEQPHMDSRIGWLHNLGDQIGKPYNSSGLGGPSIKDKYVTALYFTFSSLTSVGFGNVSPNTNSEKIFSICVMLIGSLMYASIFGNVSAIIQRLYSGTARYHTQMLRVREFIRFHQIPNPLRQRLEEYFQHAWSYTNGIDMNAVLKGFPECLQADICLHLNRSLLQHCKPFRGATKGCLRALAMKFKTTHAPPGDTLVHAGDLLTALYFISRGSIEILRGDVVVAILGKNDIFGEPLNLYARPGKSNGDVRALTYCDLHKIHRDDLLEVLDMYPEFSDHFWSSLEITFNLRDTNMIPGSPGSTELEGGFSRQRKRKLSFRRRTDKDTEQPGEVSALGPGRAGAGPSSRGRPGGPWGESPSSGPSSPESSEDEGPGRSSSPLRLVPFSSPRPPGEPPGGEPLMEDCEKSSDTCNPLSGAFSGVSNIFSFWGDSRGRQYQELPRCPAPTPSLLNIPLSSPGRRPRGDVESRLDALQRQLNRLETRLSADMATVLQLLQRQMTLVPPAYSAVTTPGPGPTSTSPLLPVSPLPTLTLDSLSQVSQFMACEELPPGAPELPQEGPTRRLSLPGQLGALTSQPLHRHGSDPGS

What does the source list for `Cc1c(N2CCC(C3(N)CC3)C2)c(F)cc2c(Cc3n[nH]c(=O)o3)cc(=O)n(C3CC3)c12` (stereo not given)?
Vd at 24 h (in vivo [1]): 1.3 L/kg; half-life at 24 h (in vivo [2]): 59.4 min; AUC(0-inf) at 24 h (in vivo [3]): 0.12 µM·h; Cmax at 24 h (in vivo [4]): 51 nM; Tmax at 24 h (in vivo [5]): 0.5 h; bioavailability at 24 h (in vivo [6]): 14.9%; logD (physchem [7]): 0.24; pKa (physchem [8]): 7.2; fraction unbound at 4 h, 10 µM (in vitro [9]): 0.4; fraction unbound at 4 h, 10 µM (in vitro [10]): 0.15; fraction unbound at 4 h, 10 µM (in vitro [11]): 0.27; MIC (Staphylococcus aureus [12]): 1 µg/mL (≈ 2.28 µM); MIC (Staphylococcus aureus [13]): 0.5 µg/mL (≈ 1.14 µM)

With `Cc1c(N2CC[C@@H]([C@H](C)N)C2)c(F)cc2ccc(=O)n(C3CC3)c12` as the molecule, how does the EC50 (HepG2) read?
Its EC50 is 93 µM.

What about the pKa (physchem [14]) of the same molecule?
Its pKa is 9.6.

And the MIC (Staphylococcus aureus [12])?
The MIC was ≤ 0.06 µg/mL.

And the MIC (Staphylococcus aureus [13])?
Its MIC is 0.06 µg/mL (≈ 0.182 µM).

What about the MIC (Staphylococcus aureus [15]) of the same molecule?
Its MIC is ≤ 0.03 µg/mL.

And the MIC (Enterococcus faecalis)?
The MIC was 0.125 µg/mL (≈ 0.379 µM).

And the MIC (Streptococcus pneumoniae)?
The MIC was ≤ 0.03 µg/mL.

Which EC50 (HepG2) does the source give for `Cc1c(N2CC[C@@H](C3(N)CC3)C2)c(F)cc2cc(C(=O)O)c(=O)n(C3CC3)c12` here?
Its EC50 is > 100 µM.

And the EC50 (K562)?
The EC50 was > 100 µM.

And the Vd at 24 h (in vivo [16])?
The Vd at 24 h was 0.75 L/kg.

What about the half-life at 24 h (in vivo [17]) of the same molecule?
The half-life at 24 h was 154 min.

And the AUC(0-inf) at 24 h (in vivo [18])?
The AUC(0-inf) at 24 h was 5.85 µM·h.

What about the Cmax at 24 h (in vivo [19]) of the same molecule?
The Cmax at 24 h was 1710 nM.

What about the Tmax at 24 h (in vivo [20]) of the same molecule?
The Tmax at 24 h was 40.2 min.

And the bioavailability at 24 h (in vivo [21])?
The bioavailability at 24 h was 70%.

What about the logD (physchem [7]) of the same molecule?
The logD was -0.34.

What about the pKa (physchem [14]) of the same molecule?
Its pKa is 5.1.

What about the fraction unbound at 4 h, 10 µM (in vitro [9]) of the same molecule?
The fraction unbound at 4 h, 10 µM was 0.49.

And the fraction unbound at 4 h, 10 µM (in vitro [10])?
Its fraction unbound at 4 h, 10 µM is 0.3.

What about the fraction unbound at 4 h, 10 µM (in vitro [11]) of the same molecule?
The fraction unbound at 4 h, 10 µM was 0.21.

What about the solubility at 24 h (physchem [22]) of the same molecule?
Its solubility at 24 h is 623 µg/mL (≈ 1620 µM).

And the Papp A→B at 2 h, 10 µM (in vitro [23])?
The Papp A→B at 2 h, 10 µM was 23.1 ×10⁻⁶ cm/s.

And the efflux ratio (in vitro [24])?
Its efflux ratio is 0.91.

And the MIC (Staphylococcus aureus [12])?
Its MIC is 0.06 µg/mL (≈ 0.156 µM).

What about the MIC (Staphylococcus aureus [13]) of the same molecule?
The MIC was 1 µg/mL (≈ 2.59 µM).

And the MIC (Staphylococcus aureus [15])?
The MIC was 0.5 µg/mL (≈ 1.3 µM).

What about the MIC (Enterococcus faecalis) of the same molecule?
Its MIC is 0.25 µg/mL (≈ 0.649 µM).

And the MIC (Streptococcus pneumoniae)?
The MIC was ≤ 0.03 µg/mL.

For `C[C@H]1COc2c(N3CC[C@@H](C4(N)CC4)C3)c(F)cc3cc(C(=O)O)c(=O)n1c23`, which EC50 (HepG2) is on record?
Its EC50 is > 100 µM.

And the EC50 (K562)?
The EC50 was > 100 µM.

And the clearance at 24 h (in vivo [25])?
Its clearance at 24 h is 3.26 mL/min/kg.

And the Vd at 24 h (in vivo [1])?
Its Vd at 24 h is 1.09 L/kg.

And the Vd at 24 h (in vivo [26])?
Its Vd at 24 h is 1.88 L/kg.

And the Vd at 24 h (in vivo [27])?
Its Vd at 24 h is 1.91 L/kg.

And the half-life at 24 h (in vivo [2])?
The half-life at 24 h was 278 min.

And the half-life at 24 h (in vivo [28])?
The half-life at 24 h was 202 min.

And the half-life at 24 h (in vivo [29])?
Its half-life at 24 h is 597 min.

And the AUC(0-inf) at 24 h (in vivo [3])?
Its AUC(0-inf) at 24 h is 8.68 µM·h.

And the AUC(0-inf) at 24 h (in vivo [30])?
The AUC(0-inf) at 24 h was 4.3 µM·h.

What about the AUC(0-inf) at 24 h (in vivo [31]) of the same molecule?
The AUC(0-inf) at 24 h was 19 µM·h.

And the Cmax at 24 h (in vivo [4])?
Its Cmax at 24 h is 1350 nM.

And the Cmax at 24 h (in vivo [32])?
The Cmax at 24 h was 490 nM.

What about the Cmax at 24 h (in vivo [33]) of the same molecule?
The Cmax at 24 h was 1350 nM.

And the Tmax at 24 h (in vivo [5])?
The Tmax at 24 h was 2.7 h.

And the Tmax at 24 h (in vivo [34])?
Its Tmax at 24 h is 2 h.

What about the Tmax at 24 h (in vivo [35]) of the same molecule?
Its Tmax at 24 h is 4 h.

What about the bioavailability at 24 h (in vivo [6]) of the same molecule?
Its bioavailability at 24 h is 65%.

What about the bioavailability at 24 h (in vivo [36]) of the same molecule?
The bioavailability at 24 h was 92%.

And the logD (physchem [7])?
Its logD is -0.9.

And the pKa (physchem [14])?
The pKa was 4.9.

And the fraction unbound at 4 h, 10 µM (in vitro [9])?
The fraction unbound at 4 h, 10 µM was 0.87.

And the fraction unbound at 4 h, 10 µM (in vitro [10])?
The fraction unbound at 4 h, 10 µM was 0.63.

And the fraction unbound at 4 h, 10 µM (in vitro [11])?
The fraction unbound at 4 h, 10 µM was 0.76.

What about the solubility at 24 h (physchem [22]) of the same molecule?
Its solubility at 24 h is 1270 µg/mL (≈ 3270 µM).

What about the Papp A→B at 2 h, 10 µM (in vitro [23]) of the same molecule?
The Papp A→B at 2 h, 10 µM was 20 ×10⁻⁶ cm/s.

And the efflux ratio (in vitro [24])?
The efflux ratio was 0.9.

What about the inhibition at 300 µM (hERG (KCNH2)) of the same molecule?
The inhibition at 300 µM was 27%.

What about the MIC (Staphylococcus aureus [12]) of the same molecule?
Its MIC is 0.25 µg/mL (≈ 0.645 µM).

What about the MIC (Staphylococcus aureus [13]) of the same molecule?
The MIC was 2 µg/mL (≈ 5.16 µM).

And the MIC (Staphylococcus aureus [15])?
Its MIC is 0.5 µg/mL (≈ 1.29 µM).

And the MIC (Enterococcus faecalis)?
Its MIC is 0.25 µg/mL (≈ 0.645 µM).

And the MIC (Streptococcus pneumoniae)?
The MIC was 0.06 µg/mL (≈ 0.155 µM).
